Several values for one entry are separate records, joined by “and”; a condition that tells them apart may be missing. Identical values can stand only once.
Key:
[1] = test system: Oryctolagus sp.; conditions: acute, dermal
[2] = test system: Rattus norvegicus; conditions: for LD50 / NOAEL: oral, gavage; for NOAEL: reproduction developmental, duration: 8 weeks, Sprague-Dawley
[3] = test system: Rattus norvegicus; conditions: M/F
[4] = test system: Rattus norvegicus; conditions: for LOEL / NOEL: Hershberger; for LEL: uterotrophic, Active
[5] = test system: Rattus norvegicus; conditions: oral
[6] = test system: Rattus norvegicus
[7] = test system: Mus musculus; conditions: subchronic, duration: 13 weeks, B6C3F1
[8] = developmental, oral, reduced pup weanling weight
[9] = duration: 10 days, oral, gavage, Sprague-Dawley, active + Negative + Antiandrogenic + anti-androgenic
[10] = duration: 10 days, oral, gavage, Sprague-Dawley, active + Antiandrogenic + anti-androgenic
[11] = duration: 5 days, oral, gavage, Sprague-Dawley, active + Antiandrogenic + decrease in AST wts
[12] = duration: 10 days, oral, gavage, Fischer 344, active + Antiandrogenic + anti-androgenic + decrease in AST wts
[13] = duration: 10 days, oral, gavage, Sprague-Dawley, Antiandrogenic + anti-androgenic + decrease in AST wts
[14] = duration: 10 days, oral, gavage, Wistar, active + Antiandrogenic + anti-androgenic + decrease in AST wts
[15] = subchronic, oral, gavage, epithelial hyperplasia of the forestomach
[16] = chronic, duration: 2 years, oral, diet, reduced body weight gain and food consumption
[17] = short-term, duration: 28 days, gavage, M, Sprague-Dawley, Body Weight Changes: decrease + Food Consumption: decrease + Relative Organ Weight: Thyroid increase
[18] = chronic, duration: 2 years, oral, diet, reduced body weight (males), liver cell vacuolation, cholinesterase inhibition
[19] = duration: 10 days, oral, gavage, Sprague-Dawley, active + Negative + Antiandrogenic + anti-androgenic + negative

CCCCCN(CCCCC)C(=S)[S][Sb]([S]C(=S)N(CCCCC)CCCCC)[S]C(=S)N(CCCCC)CCCCC [Antimony diamyldithiocarbamate]
LD50 ([1]; occlusive): 16000 mg/kg | LD50 ([2]; acute): 16400 mg/kg

CCCCNC(=O)n1c(NC(=O)OC)nc2ccccc21 [Benomyl]
LEL [3, 8]: 25 mg/kg-day | NOEL [3, 8]: 5 mg/kg-day | LOEL [4, 9]: 1000 mg/kg-day | NOEL [4, 9]: 300 mg/kg-day

ClCCOCCCl [Bis(chloroethyl) ether]
NOEL ([5]; subchronic, gavage, Sprague-Dawley): 15 mg/kg-day | LOAEL ([6]; chronic, duration: 130 days, inhalation, M/F, body weight): 404 mg/m3

CCC[CH2][Sn]([Cl])([Cl])[CH2]CCC [Dibutyltin dichloride]
LOAEL ([6]; short-term, duration: 6 weeks, oral, diet, M/F, Wistar, immunological): 5 mg/kg-day

CC(C)CCCCCCCOC(=O)c1ccccc1C(=O)OCCCCCCCC(C)C [Diisodecyl phthalate]
LOEL [4, 10]: 500 mg/kg-day | NOEL [4, 10]: 100 mg/kg-day

C#C[C@]1(OC(=O)CC)C[C@@H]2CC[C@@H]3[C@H](CC[C@@]4(C)[C@H]3CC[C@]4(C#C)OC(=O)CC)[C@H]2C1 [Dinordrin II]
LEL ([4]; duration: 3 days, oral): 0.01 mg/day

C#C[C@@]1(OC(=O)CC)C[C@@H]2CC[C@@H]3[C@H](CC[C@@]4(C)[C@H]3CC[C@]4(C#C)OC(=O)CC)[C@H]2C1 [Dinordrin I]
LEL ([4]; duration: 3 days, oral): 0.000156 mg/day

CC(C)([CH2][Sn]([CH2]C(C)(C)c1ccccc1)([CH2]C(C)(C)c1ccccc1)[O][Sn]([CH2]C(C)(C)c1ccccc1)([CH2]C(C)(C)c1ccccc1)[CH2]C(C)(C)c1ccccc1)c1ccccc1 [Fenbutatin oxide]
LOEL ([4]; duration: 10 days, oral, gavage, wistar, active + Negative + Antiandrogenic + anti-androgenic + decrease in age of partial PPS at 10 / decrease in PPS wt and age at 75 with …): 10 mg/kg-day

COP(=S)(OC)Oc1ccc([N+](=O)[O-])c(C)c1 [Fenitrothion]
LOEL ([4]; duration: 7 days, oral, gavage, Sprague-Dawley, active + Negative + Antiandrogenic + anti-androgenic): 15 mg/kg-day

CC(C)C(=O)Nc1ccc([N+](=O)[O-])c(C(F)(F)F)c1 [Flutamide]
LOEL [4, 11]: 2.5 mg/kg-day | NOEL [4, 11]: 0.6 mg/kg-day | NOEL ([4]; duration: 7 days, oral, gavage, Sprague-Dawley, active + Antiandrogenic + anti-androgenic + decrease in AST wts): 0.6 mg/kg-day | LOEL [4, 12]: 2.5 mg/kg-day and 3.2 mg/kg-day | NOEL [4, 12]: 0.6 mg/kg-day | LOEL [4, 13]: 1 mg/kg-day | NOEL [4, 13]: 0.6 mg/kg-day | NOEL ([4]; duration: 10 days, oral, gavage, Sprague-Dawley, Neither + decrease in AST): 0.6 mg/kg-day | NOEL ([4]; duration: 10 days, oral, gavage, Sprague-Dawley, active + Antiandrogenic + anti-androgenic + decrease in AST wts): 0.6 mg/kg-day | NOEL ([4]; duration: 10 days, oral, gavage, Sprague-Dawley, active + Antiandrogenic + decrease in AST wts): 0.6 mg/kg-day | LOEL [4, 14]: 2.5 mg/kg-day and 3 mg/kg-day and 3.2 mg/kg-day | NOEL [4, 14]: 0.6 mg/kg-day

Brc1ccccc1-c1c(Br)c(Br)c(Br)c(Br)c1Br [Hexabromobiphenyl]
NOAEL ([6]; short-term, duration: 10 days, oral, gavage, M, Sprague-Dawley, endocrine): 1 mg/kg-day

ClC(Cl)=C(Cl)C(Cl)=C(Cl)Cl [Hexachloro-1,3-butadiene]
NOAEL ([7]; oral, diet, F, renal): 0.2 mg/kg-day | LOAEL ([6]; short-term, duration: 14 days, oral, diet, M/F, Wistar, renal): 5.9 mg/kg-day

CC(C)Oc1ccc2c(=O)c(-c3ccccc3)coc2c1 [Ipriflavone]
NOEL ([5]; subchronic, duration: 35 days, gavage, Sprague-Dawley): > 3000 mg/kg-day | LEL ([4]; duration: 3 days, oral): 200 mg/day

CC(C)CCCCCCCOP(OCCCCCCCC(C)C)OCCCCCCCC(C)C [Isodecyl phosphite]
LD50 ([1]; New Zealand): > 5000 mg/kg | LC50 ([2]; acute, Inhalation, Sherman Wistar): > 12.6 µg/mL | LD50 ([2]; acute, Sherman Wistar): > 5000 mg/kg | NOAEL ([2]; generation: F0): ≥ 1000 mg/kg-day | NOAEL ([2]; generation: F1): ≥ 1000 mg/kg-day

CBr [Methyl bromide]
LOAEL ([3]; chronic, duration: 29 months, inhalation, degenerative and proliferative lesions of the olfactory epithelium of the nasal cavity): 11.7 mg/m3 | LOAEL [3, 15]: 7.1 mg/kg-day | NOAEL [3, 15]: 1.4 mg/kg-day | LOAEL ([7]; inhalation, M/F, neurological): 38.8 mg/m3 | LOAEL ([6]; chronic, duration: 129 weeks, inhalation, M/F, Wistar, respiratory): 12 mg/m3

CCCCCCCCCC(=O)O[C@H]1CC[C@H]2[C@@H]3CCC4=CC(=O)CC[C@@H]4[C@H]3CC[C@]12C [Nandrolone decanoate]
LOEL ([4]; duration: 10 days, injection, intramuscular, Wistar, active + Androgenic + androgenic): 1.5 mg/kg-day

CCCCCCCC=O [Octanal]
LD50 ([1]; occlusive, New Zealand): 5210 mg/kg

CNC(=O)ON=C(SC)C(=O)N(C)C [Oxamyl]
LEL [3, 16]: 5 mg/kg-day | NOEL [3, 16]: 2.5 mg/kg-day | NOEL ([4]; duration: 10 days, oral, gavage, Sprague-Dawley, inactive + Negative + Negative + neither + negative): 0.5 mg/kg-day

O=C1OC(c2ccc(O)cc2)(c2ccc(O)cc2)c2ccccc21 [Phenolphthalein]
NOAEL [5, 17]: < 200 mg/kg-day | NOEL [5, 17]: < 200 mg/kg-day | NOEL ([5]; subchronic, duration: 13 weeks, diet, F, Fischer 344, Body Weight Changes: decrease + Absolute Organ Weight: Liver + Relative Organ Weight: Right kidney increase, Liver increase): 800 mg/kg-day | NOEL ([5]; subchronic, duration: 13 weeks, diet, M/F, Fischer 344, Body Weight Changes: decrease + Absolute Organ Weight: Liver + Relative Organ Weight: Right kidney increase, Liver increase): 576 mg/kg-day | LEL ([4]; duration: 2 days, injection, subcutaneous): 1 mg/day

COP(=S)(OC)SCN1C(=O)c2ccccc2C1=O [Phosmet]
LEL [3, 18]: 20 mg/kg-day | NOEL [3, 18]: 2 mg/kg-day | LOEL [4, 19]: 25 mg/kg-day | NOEL [4, 19]: 20 mg/kg-day and 15 mg/kg-day

C[C@H]1CCC[C@H](O)CCCCCc2cc(O)cc(O)c2C(=O)O1 [Zearalanol]
LEL ([4]; duration: 3 days, oral): 0.03 mg/day

ClC1C(Cl)C(Cl)C(Cl)C(Cl)C1Cl (stereo not drawn) [alpha-1,2,3,4,5,6-Hexachlorocyclohexane]
NOAEL ([6]; chronic, duration: 107 weeks, oral, diet, M/F, Wistar, hepatic): 0.9 mg/kg-day | NOAEL ([6]; short-term, duration: 28 days, oral, gavage, M, Fischer 344, hepatic): 2 mg/kg-day
